{"source": "patent US20150231242A1", "about": "“COMBINATION OF CD37 ANTIBODIES WITH BENDAMUSTINE” (Boehringer Ingelheim International GmbH, priority 2012, published 2015)", "key": {"[1]": {"system": "Raji Burkitt lymphoma cells", "assay": "Apoptosis assay (Annexin V/PI staining, FACS) on Raji cells", "format": "cell-based, human", "conditions": "48 h, A2 10 μg/ml, Annexin V positive cells, mean of three experiments"}, "DoHH2 tumor cells": {"system": "DoHH2 tumor cells", "assay": "DoHH2 human xenograft tumor model (Example 2)", "format": "in vivo, CB-17 SCID mice", "conditions": "A2 10 mg/kg twice weekly, bendamustine 10 mg/kg twice weekly ip; present-tense example"}, "[2]": {"assay": "Body weight / tolerability in DOHH2 tumor-bearing mice (Example 3)", "conditions": "for tolerability in words: body weight as indicator of tolerability"}, "[3]": {"system": "DOHH2 tumors (human follicular lymphoma)", "assay": "Efficacy in subcutaneous DOHH2 human follicular lymphoma xenograft (Example 3)", "format": "in vivo, C.B-17 scid mice", "conditions": "day 16; for anti-tumor effect in words: DOHH2 tumors"}, "[4]": {"system": "Ramos Burkitt lymphoma cells", "assay": "Apoptosis assay (Annexin V/PI staining, FACS) on Ramos cells", "format": "cell-based, human", "conditions": "48 h, A2 10 μg/ml, Annexin V positive cells, mean of three experiments"}}}
{"compound": "Cn1c(CCCC(=O)O)nc2cc(N(CCCl)CCCl)ccc21", "note": "[Bendamustine, 4-[5-[Bis(2-chloroethyl)amino]-1-methylbenzimidazol-2-yl]butanoic acid]", "values": [{"measurement": "% apoptotic cells", "setting": "[1]; bendamustine 200 μM column", "result": 10, "unit": "%"}, {"measurement": "% apoptotic cells", "setting": "[1]; bendamustine 400 μM column", "result": 13, "unit": "%"}, {"measurement": "anti-tumor effect in words", "setting": "DoHH2 tumor cells", "result": "significant anti-tumor effect"}, {"measurement": "tolerability in words", "setting": "[2]", "result": "resulted in weight loss"}, {"measurement": "tolerability in words", "setting": "[2]; listed as bendamustine", "result": "moderately tolerated"}, {"measurement": "body weight loss in median", "setting": "[2]; within the first week of treatment", "result": "up to 7.9%"}, {"measurement": "anti-tumor effect in words", "setting": "[3]", "result": "significant inhibition of tumor growth"}, {"measurement": "anti-tumor effect in words", "setting": "[3]; listed as bendamustine", "result": "growth inhibited"}, {"measurement": "CR (complete tumor regression)", "setting": "[3]; 7 mice per group", "result": 0, "unit": "x/7"}, {"measurement": "PR (partial tumor regression)", "setting": "[3]; 7 mice per group", "result": 0, "unit": "x/7"}, {"measurement": "TGI", "setting": "[3]; median, antibody A2 10 mg/kg i.p. twice weekly, bendamustine 20 mg/kg i.p. two injections", "result": 57, "unit": "%"}, {"measurement": "% apoptotic cells", "setting": "[4]; bendamustine 100 μM column", "result": 19, "unit": "%"}, {"measurement": "% apoptotic cells", "setting": "[4]; bendamustine 400 μM column", "result": 35, "unit": "%"}]}
